Reference: US12617779B2, “Self degradation-type CDK9 inhibitor prodrug and liposome encapsulating same” (Sumitomo Pharma Co., Ltd., priority 2021, dated 2026)
Each block holds one molecule with its values, some of them ahead of it.

Assay: Evaluation of conversion rate to active form in buffer solution (Experimental Example 1)
Assay type: physicochemical
Conditions: for Stability in buffer solution at pH 5: pH 5, 37° C., up to 2 or 3 hours; for Conversion to Alvocidib at pH 7.4: pH 7.4, 37° C., up to 3 hours
Method in brief: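 HPLC read-out: residual parent and Alvocidib production rate after 0, 0.5, 1, 2 and 3 hours. Compounds sat at 25 umol/L, 37° C, in buffers from pH 5.0 to 7.4 (50 mM citrate below pH 6.0, 50 mM phosphate otherwise).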

[1] = pH5.0, 0 hr, 37° C., 25 umol/L in buffer solution
[2] = pH5.0, 0.5 hr, 37° C., 25 umol/L in buffer solution
[3] = pH5.0, 1 hr, 37° C., 25 umol/L in buffer solution
[4] = pH5.0, 2 hr, 37° C., 25 umol/L in buffer solution
[5] = pH5.0, 3 hr, 37° C., 25 umol/L in buffer solution
[6] = pH5.5, 0 hr, 37° C., 25 umol/L in buffer solution
[7] = pH5.5, 0.5 hr, 37° C., 25 umol/L in buffer solution
[8] = pH5.5, 1 hr, 37° C., 25 umol/L in buffer solution
[9] = pH5.5, 2 hr, 37° C., 25 umol/L in buffer solution
[10] = pH5.5, 3 hr, 37° C., 25 umol/L in buffer solution
[11] = pH6.0, 0 hr, 37° C., 25 umol/L in buffer solution
[12] = pH6.0, 0.5 hr, 37° C., 25 umol/L in buffer solution
[13] = pH6.0, 1 hr, 37° C., 25 umol/L in buffer solution
[14] = pH6.0, 2 hr, 37° C., 25 umol/L in buffer solution
[15] = pH6.0, 3 hr, 37° C., 25 umol/L in buffer solution
[16] = pH6.5, 0 hr, 37° C., 25 umol/L in buffer solution
[17] = pH6.5, 0.5 hr, 37° C., 25 umol/L in buffer solution
[18] = pH6.5, 1 hr, 37° C., 25 umol/L in buffer solution
[19] = pH6.5, 2 hr, 37° C., 25 umol/L in buffer solution
[20] = pH6.5, 3 hr, 37° C., 25 umol/L in buffer solution
[21] = pH7.0, 0 hr, 37° C., 25 umol/L in buffer solution
[22] = pH7.0, 0.5 hr, 37° C., 25 umol/L in buffer solution
[23] = pH7.0, 1 hr, 37° C., 25 umol/L in buffer solution
[24] = pH7.0, 2 hr, 37° C., 25 umol/L in buffer solution
[25] = pH7.0, 3 hr, 37° C., 25 umol/L in buffer solution
[26] = pH7.4, 0 hr, 37° C., 25 umol/L in buffer solution
[27] = pH7.4, 0.5 hr, 37° C., 25 umol/L in buffer solution
[28] = pH7.4, 1 hr, 37° C., 25 umol/L in buffer solution
[29] = pH7.4, 2 hr, 37° C., 25 umol/L in buffer solution
[30] = pH7.4, 3 hr, 37° C., 25 umol/L in buffer solution

- Production rate of Alvocidib (pH5.0, 0 hr): 2.8%
- Residual rate (pH5.0, 0 hr): 96.8%
- Stability in buffer solution at pH 5: unstable
- Production rate of Alvocidib (pH5.0, 0.5 hr): 5.7%
- Residual rate (pH5.0, 0.5 hr): 93.9%
- Production rate of Alvocidib (pH5.0, 1 hr): 9.7%
- Residual rate (pH5.0, 1 hr): 90.1%
- Production rate of Alvocidib (pH5.0, 2 hr): 15.7%
- Residual rate (pH5.0, 2 hr): 83.8%
- Production rate of Alvocidib (pH5.0, 3 hr): 21.9%
- Residual rate (pH5.0, 3 hr): 77.6%
- Production rate of Alvocidib (pH5.5, 0 hr): 2.7%
- Residual rate (pH5.5, 0 hr): 97.0%
- Production rate of Alvocidib (pH5.5, 0.5 hr): 7.9%
- Residual rate (pH5.5, 0.5 hr): 91.9%
- Production rate of Alvocidib (pH5.5, 1 hr): 14.3%
- Residual rate (pH5.5, 1 hr): 85.4%
- Production rate of Alvocidib (pH5.5, 2 hr): 23.8%
- Residual rate (pH5.5, 2 hr): 75.9%
- Production rate of Alvocidib (pH5.5, 3 hr): 33.1%
- Residual rate (pH5.5, 3 hr): 66.6%
- Production rate of Alvocidib (pH6.0, 0 hr): 3.4%
- Residual rate (pH6.0, 0 hr): 96.4%
- Production rate of Alvocidib (pH6.0, 0.5 hr): 26.1%
- Residual rate (pH6.0, 0.5 hr): 73.9%
- Production rate of Alvocidib (pH6.0, 1 hr): 48.3%
- Residual rate (pH6.0, 1 hr): 51.7%
- Production rate of Alvocidib (pH6.0, 2 hr): 70.9%
- Residual rate (pH6.0, 2 hr): 28.9%
- Production rate of Alvocidib (pH6.0, 3 hr): 84.8%
- Residual rate (pH6.0, 3 hr): 15.2%
- Production rate of Alvocidib (pH6.5, 0 hr): 3.9%
- Residual rate (pH6.5, 0 hr): 96.0%
- Production rate of Alvocidib (pH6.5, 0.5 hr): 34.7%
- Residual rate (pH6.5, 0.5 hr): 65.3%
- Production rate of Alvocidib (pH6.5, 1 hr): 61.2%
- Residual rate (pH6.5, 1 hr): 38.8%
- Production rate of Alvocidib (pH6.5, 2 hr): 83.2%
- Residual rate (pH6.5, 2 hr): 16.8%
- Production rate of Alvocidib (pH6.5, 3 hr): 93.4%
- Residual rate (pH6.5, 3 hr): 6.6%
- Production rate of Alvocidib (pH7.0, 0 hr): 4.1%
- Residual rate (pH7.0, 0 hr): 95.9%
- Production rate of Alvocidib (pH7.0, 0.5 hr): 37.3%
- Residual rate (pH7.0, 0.5 hr): 62.6%
- Production rate of Alvocidib (pH7.0, 1 hr): 64.3%
- Residual rate (pH7.0, 1 hr): 35.5%
- Production rate of Alvocidib (pH7.0, 2 hr): 85.8%
- Residual rate (pH7.0, 2 hr): 14.2%
- Production rate of Alvocidib (pH7.0, 3 hr): 94.9%
- Residual rate (pH7.0, 3 hr): 5.1%
- Production rate of Alvocidib (pH7.4, 0 hr): 4.2%
- Residual rate (pH7.4, 0 hr): 95.3%
- Production rate of Alvocidib (pH7.4, 0.5 hr): 36.7%
- Residual rate (pH7.4, 0.5 hr): 63.0%
- Production rate of Alvocidib (pH7.4, 1 hr): 63.5%
- Residual rate (pH7.4, 1 hr): 36.3%
- Production rate of Alvocidib (pH7.4, 2 hr): 84.7%
- Residual rate (pH7.4, 2 hr): 15.3%
- Production rate of Alvocidib (pH7.4, 3 hr): 94.4%
- Residual rate (pH7.4, 3 hr): 5.6%
SMILES: C[C@H](N)C(=O)O[C@@H]1CN(C)CC[C@@H]1c1c(O)cc(O)c2c(=O)cc(-c3ccccc3Cl)oc12 [Comparative Example 7, reference compound]

SMILES: COCCN(CC1CCCCN1)C(=O)Oc1cc(O)c2c(=O)cc(-c3ccccc3Cl)oc2c1[C@H]1CCN(C)C[C@H]1O (stereo partly drawn) [Example 12, 2-(2-chlorophenyl)-5-hydroxy-8-[(3S,4R)-3-hydroxy-1-methylpiperidin-4-yl]-4-oxo-4H-1-benzopyran-7-yl (2-methoxyethyl) [(piperidin-2-yl)methyl]carbamate]
- Production rate of Alvocidib [1]: 0.5%
- Residual rate [1]: 80.7%
- Stability in buffer solution at pH 5: stable
- Production rate of Alvocidib [2]: 1.1%
- Residual rate [2]: 80.3%
- Production rate of Alvocidib [3]: 1.5%
- Residual rate [3]: 79.6%
- Production rate of Alvocidib [4]: 2.3%
- Residual rate [4]: 79.6%
- Production rate of Alvocidib [5]: 3.9%
- Residual rate [5]: 77.3%
- Production rate of Alvocidib [6]: 0.5%
- Residual rate [6]: 80.6%
- Production rate of Alvocidib [7]: 1.9%
- Residual rate [7]: 79.9%
- Production rate of Alvocidib [8]: 3.8%
- Residual rate [8]: 77.5%
- Production rate of Alvocidib [9]: 6.9%
- Residual rate [9]: 73.8%
- Production rate of Alvocidib [10]: 9.8%
- Residual rate [10]: 71.2%
- Production rate of Alvocidib [11]: 0.6%
- Residual rate [11]: 80.8%
- Production rate of Alvocidib [12]: 6.2%
- Residual rate [12]: 75.4%
- Production rate of Alvocidib [13]: 11.0%
- Residual rate [13]: 70.3%
- Production rate of Alvocidib [14]: 22.5%
- Residual rate [14]: 56.2%
- Production rate of Alvocidib [15]: 26.9%
- Residual rate [15]: 54.0%
- Production rate of Alvocidib [16]: 1.0%
- Residual rate [16]: 80.4%
- Production rate of Alvocidib [17]: 16.6%
- Residual rate [17]: 63.8%
- Production rate of Alvocidib [18]: 31.8%
- Residual rate [18]: 39.4%
- Production rate of Alvocidib [19]: 40.5%
- Residual rate [19]: 26.2%
- Production rate of Alvocidib [20]: 52.2%
- Residual rate [20]: 13.4%
- Production rate of Alvocidib [21]: 1.7%
- Residual rate [21]: 80.2%
- Production rate of Alvocidib [22]: 33.8%
- Residual rate [22]: 35.8%
- Production rate of Alvocidib [23]: 51.2%
- Residual rate [23]: 15.4%
- Production rate of Alvocidib [24]: 60.2%
- Residual rate [24]: 0.0%
- Production rate of Alvocidib [25]: 62.7%
- Residual rate [25]: 0.0%
- Production rate of Alvocidib [26]: 3.9%
- Residual rate [26]: 77.3%
- Conversion to Alvocidib at pH 7.4: rapidly converted to Alvocidib
- Production rate of Alvocidib [27]: 51.0%
- Residual rate [27]: 10.8%
- Production rate of Alvocidib [28]: 65.9%
- Residual rate [28]: 0.0%
- Production rate of Alvocidib [29]: 67.3%
- Residual rate [29]: 0.0%
- Production rate of Alvocidib [30]: 63.6%
- Residual rate [30]: 0.0%

SMILES: CCN(CCC1CCCCN1)C(=O)Oc1cc(O)c2c(=O)cc(-c3ccccc3Cl)oc2c1[C@H]1CCN(C)C[C@H]1O (stereo partly drawn) [Example 16, 2-(2-chlorophenyl)-5-hydroxy-8-[(3S,4R)-3-hydroxy-1-methylpiperidin-4-yl]-4-oxo-4H-1-benzopyran-7-yl ethyl[2-(piperidin-2-yl)ethyl]carbamate]
- Production rate of Alvocidib [1]: 0.0%
- Residual rate [1]: 84.3%
- Stability in buffer solution at pH 5: stable
- Production rate of Alvocidib [2]: 0.0%
- Residual rate [2]: 84.9%
- Production rate of Alvocidib [3]: 0.0%
- Residual rate [3]: 86.4%
- Production rate of Alvocidib [4]: 0.0%
- Residual rate [4]: 86.1%
- Production rate of Alvocidib [5]: 0.0%
- Residual rate [5]: 86.1%
- Production rate of Alvocidib [6]: 0.0%
- Residual rate [6]: 84.9%
- Production rate of Alvocidib [7]: 0.0%
- Residual rate [7]: 85.8%
- Production rate of Alvocidib [8]: 0.0%
- Residual rate [8]: 86.3%
- Production rate of Alvocidib [9]: 0.0%
- Residual rate [9]: 85.7%
- Production rate of Alvocidib [10]: 0.0%
- Residual rate [10]: 86.6%
- Production rate of Alvocidib [11]: 0.0%
- Residual rate [11]: 85.3%
- Production rate of Alvocidib [12]: 0.0%
- Residual rate [12]: 84.3%
- Production rate of Alvocidib [13]: 12.8%
- Residual rate [13]: 71.7%
- Production rate of Alvocidib [14]: 21.6%
- Residual rate [14]: 63.0%
- Production rate of Alvocidib [15]: 29.3%
- Residual rate [15]: 55.6%
- Production rate of Alvocidib [16]: 0.0%
- Residual rate [16]: 86.0%
- Production rate of Alvocidib [17]: 16.4%
- Residual rate [17]: 67.6%
- Production rate of Alvocidib [18]: 25.3%
- Residual rate [18]: 61.4%
- Production rate of Alvocidib [19]: 47.1%
- Residual rate [19]: 37.4%
- Production rate of Alvocidib [20]: 51.5%
- Residual rate [20]: 34.9%
- Production rate of Alvocidib [21]: 0.0%
- Residual rate [21]: 86.2%
- Production rate of Alvocidib [22]: 30.5%
- Residual rate [22]: 54.8%
- Production rate of Alvocidib [23]: 50.2%
- Residual rate [23]: 35.7%
- Production rate of Alvocidib [24]: 68.6%
- Residual rate [24]: 16.9%
- Production rate of Alvocidib [25]: 78.2%
- Residual rate [25]: 7.7%
- Production rate of Alvocidib [26]: 0.9%
- Residual rate [26]: 85.3%
- Conversion to Alvocidib at pH 7.4: rapidly converted to Alvocidib
- Production rate of Alvocidib [27]: 59.0%
- Residual rate [27]: 23.2%
- Production rate of Alvocidib [28]: 77.8%
- Residual rate [28]: 5.9%
- Production rate of Alvocidib [29]: 82.1%
- Residual rate [29]: 2.2%
- Production rate of Alvocidib [30]: 85.8%
- Residual rate [30]: 0.0%
